Test results taken from paper PMC4533939, “Targeting lysyl oxidase for molecular imaging in breast cancer” (Breast Cancer Research : BCR, 2015).
Like-named read-outs stand apart in the source and are kept apart here. Each block holds one compound with its values, some of them ahead of it.

Assays:
EMT-6 tumors = format: in vivo, BALB/c mice
Experimental: Murine EMT-6 cells (5 × 10^6 cells in 100 μl of PBS) were injected into the upper left flank of female BALB/c mice (20–24 g; Charles River, Saint-Constant, QC, Canada). The EMT-6 tumor-bearing mice were imaged and used for ex vivo biodistribution experiments after allowing 7–10 days for the tumors to reach sizes of about 600 mm^3.
(§1) PET experiments were performed with [^18F]FB-GGGDPKGGGGG-NH2 injected into EMT-6 tumor-bearing BALB/c mice or into NIH-III mice bearing subcutaneous MCF-7 or MDA-MB-231 tumors, and tracer uptake was analyzed in vivo. For radiotracer injection, a catheter was placed into the tail vein of the mouse. While under anesthesia, mice were placed in the prone position with the medial axis parallel to the axial axis of the scanner and the thorax, abdomen and hind legs placed into the center of the field of view of the microPET R4 or Inveon PET/computed tomography (CT) scanner (Siemens Preclinical Solutions, Knoxville, TN, USA). A transmission scan for attenuation correction was not acquired. [^18F]FB-GGGDPKGGGGG-NH2 (4–5 MBq) in 100–150 μl of saline was injected intravenously through the catheter into the tail vein. The effects of BAPN were analyzed after intraperitoneal injection of 2 mg (100 mg/kg) of the inhibitor 4 h and 24 h before radiotracer injection. For the different experimental protocols, either an emission scan 60 min postinjection (dynamic experiments) was performed immediately or a 20 min postinjection PET scan acquisition (static scan followed by CT scan) was performed. Depending on the experimental setup, data acquisition continued for either 60 min or 20 min in three-dimensional list mode. The dynamic list mode data were sorted into sinograms with 53 time frames (10×2 s, 8×5 s, 6×10 s, 6×20 s, 8×60 s, 10×120 s and 5×300 s). The frames were reconstructed using ordered subset expectation maximization or maximum a posteriori reconstruction modes.
(§2) The pixel size was 0.085×0.085×0.12 cm, and the resolution in the center field of view was 1.8 mm. Correction for partial volume effects was not performed. The image files were further processed using the ROVER v2.0.51 software (ABX, Radeberg, Germany). Masks defining three-dimensional regions of interest (ROIs) were set, and the ROIs were defined by 50 % thresholding. Mean standardized uptake values (SUVmean = [activity/ml tissue]/[injected activity/body weight], mL/kg] were calculated for each ROI. Time–activity curves (TACs) were generated for the dynamic scans only. All semiquantified PET data are presented as mean ± SEM.

LOX = conditions: peptidyl lysine oxidation by LOX; cited from earlier work
Text: An alternative approach for specific targeting of LOX involves the use of oligopeptides. Nagan and Kagan have investigated collagen-like structures to explore peptide sequences derived from the lysine-containing N- and C-terminal telopeptides of collagen concerning their enzymatic conversion by LOX. […] It was concluded that the aspartic acid located two positions ...

MDA-MB-231 tumors = format: in vivo, NIH-III nu/nu mice
Experimental: (§3) The pellet was implanted subcutaneously into the upper right flank to provide a constant level of 17β-estradiol needed by the estrogen receptor (ER)-positive MCF-7 cells. Tumors were imaged 20–30 days after injection, with the tumors reaching sizes ranging from 200 to 400 mm^3. Human MDA-MB-231 cells (1×10^6 cells in 100 μl of PBS) were also injected subcutaneously into 8–10-week-old female NIH-III nu/nu mice. After 7–9 days, they reached a size of approximately 500 mm^3 and were suitable for the PET experiments.
as §1, with “Depending on the experimental setup, data acquisition continued for either 60 min or 20 min in three-dimensional list mode. The dynamic list mode data were sorted into sinograms with 53 time frames (10×2 s, 8×5 s, 6×10 s, 6×20 s, 8×60 s, 10×120 s and 5×300 s). The frames were reconstructed using ordered subset expectation maximization or maximum a posteriori reconstruction modes.” left out
(§4) The pixel size was 0.085×0.085×0.12 cm, and the resolution in the center field of view was 1.8 mm. […] Mean standardized uptake values (SUVmean = [activity/ml tissue]/[injected activity/body weight], mL/kg] were calculated for each ROI. Time–activity curves (TACs) were generated for the dynamic scans only. All semiquantified PET data are presented as mean ± SEM.

[1] = Radio-HPLC of plasma samples and quality control (retention time); format: physicochemical; conditions: Luna C18(2) 250×4.6 mm, water/0.2 % TFA - acetonitrile gradient, 1 ml/min; two more lipophilic radiometabolites eluted at 13.2 and 14.3 min
Experimental: (§5) Normal BALB/c mice received injections of approximately 25 MBq of [^18F]FB-GGGDPKGGGG. Venous blood samples were taken at 5, 15, 30 and 60 min postinjection and processed for determination of metabolic stability in vivo. Blood cells were separated by centrifugation (13,000 rpm for 5 min). Proteins in the supernatant were precipitated by addition of 2 volume parts of methanol followed by a second centrifugation step (13,000 rpm for 5 min). Radioactivity in blood components (cells, proteins and plasma) was measured using a Wallac Wizard 1480 3 automatic gamma counter. The clear plasma supernatant was examined using a Shimadzu HPLC system (Shimadzu Scientific Instruments, Columbia, MD, USA) equipped with a DGU-20A5 degasser, a SIL-20AHT autosampler, a LC-20AT pump, a SPD-M20A photo diode array detector and a RAMONA* radiodetector (Raytest Isotopenmessgeraete, Straubenhardt, Germany). The samples were analyzed using a Phenomenex Luna 10-μm C18(2) 100 Å, 250×4.6-mm column and the following gradients with water/0.2 % TFA as solvent A and acetonitrile as solvent B: 0–3 min 10 % B, 10 min 30 % B, 17 min 50 % B, 23 min 70 % B and 27–30 min 90 % B. The flow was constant at 1 ml/min, and the ultraviolet signals were measured at 210 nm and 254 nm.

[2] = test system: breast cancer tumor models; format: in vivo, mice; conditions: for tumor-to-blood ratio / tumor-to-muscle ratio: tumor model not stated
Experimental: as §1, §2

MCF-7 tumors = format: in vivo, NIH-III nu/nu mice
Experimental: Human MCF-7 cells, which form xenografts in female athymic mice, were injected subcutaneously (2–5×10^6 cells in 100 μl of PBS) into 8–10-week-old female NIH-III nu/nu mice (Charles River, Wilmington, MA, USA). Before injection of the cells, all mice received a 0.72-mg pellet containing 17β-estradiol in a 60-day release preparation (Innovative Research of America, Sarasota, FL, USA).
as §3
PET experiments were performed with [^18F]FB-GGGDPKGGGGG-NH2 injected into EMT-6 tumor-bearing BALB/c mice or into NIH-III mice bearing subcutaneous MCF-7 or MDA-MB-231 tumors, and tracer uptake was analyzed in vivo. For radiotracer injection, a catheter was placed into the tail vein of the mouse. While under anesthesia, mice were placed in the prone position with the medial axis parallel to the axial axis of the scanner and the thorax, abdomen and hind legs placed into the center of the field of view of the microPET R4 or Inveon PET/computed tomography (CT) scanner (Siemens Preclinical Solutions, Knoxville, TN, USA). A transmission scan for attenuation correction was not acquired. […] The effects of BAPN were analyzed after intraperitoneal injection of 2 mg (100 mg/kg) of the inhibitor 4 h and 24 h before radiotracer injection. […]
as §4

[3] = parameters: species or system BALB/c mice; conditions: mouse, in vivo
Experimental: as §5

Compound: N#CCCN [BAPN, β-aminopropionitrile, reference compound]
reduction of maximum tumor uptake of the radiotracer (SUV5min) (EMT-6 tumors; EMT-6 tumor, 100 mg/kg BAPN (about 2 mg per mouse) i.p. 4 h before [18F]FB-GGGDPKGGGGG-NH2): approximately 33% | effect on radiotracer tumor uptake at 60 min postinjection (EMT-6 tumors; EMT-6 tumor, BAPN predosing 4 h or 24 h): no effect | effect on radioactivity in muscle tissue (EMT-6 tumors; muscle of EMT-6 tumor-bearing mice, BAPN predosing): unaltered

Compound: Ac-GGGDPKGGGGG-NH2 [oligopeptide substrate with favorable kinetic properties for LOX-mediated peptidyl lysine oxidation (Nagan and Kagan)]
Michaelis constant (Km) among several collagen N-telopeptide derivatives (LOX): lowest | kcat/Km among several collagen N-telopeptide derivatives (LOX): highest

SUV60min, muscle tissue (EMT-6 tumors; mouse, in vivo): 0.03±0.004 | SUV60min, muscle tissue (MDA-MB-231 tumors; mouse, in vivo): 0.04±0.004 | HPLC retention time [1]: 12.2 min | time to maximum SUV in tumor ([2]; mouse, in vivo): 3 to 5 min | SUV60min, muscle tissue (MCF-7 tumors; mouse, in vivo): 0.05±0.008 | share of injected radiotracer found in the plasma compartment [3]: > 60%
Compound: [^18F]FB-GGGDPKGGGGG-NH2 [[^18F]fluorobenzoate-GGGDPKGGGGG-NH2, 18F-labeled LOX-targeting oligopeptide PET radiotracer]
SUV5min, tumor (EMT-6 tumors; EMT-6 tumor, 4-5 MBq i.v., 5 min postinjection, mean ± SEM, n = 4): 0.63±0.08 | SUV60min, tumor, in the absence and presence of BAPN (EMT-6 tumors; EMT-6 tumor, 60 min postinjection, control and BAPN-predosed groups): 0.19–0.21 | SUV60min, tumor (EMT-6 tumors; EMT-6 tumor, 60 min postinjection, mean ± SEM, n = 4): 0.19±0.02 | SUV5min, tumor, in the presence of BAPN (EMT-6 tumors; EMT-6 tumor, BAPN i.p. 24 h before radiotracer, mean ± SEM, n = 7, p > 0.05): 0.52±0.05 | SUV5min, tumor (MDA-MB-231 tumors; MDA-MB-231 tumor, 4-5 MBq i.v., 5 min postinjection, mean ± SEM, n = 5): 0.50±0.09 | SUV60min, tumor (MDA-MB-231 tumors; MDA-MB-231 tumor, 60 min postinjection, mean ± SEM, n = 5): 0.12±0.02 | tumor-to-blood ratio ([2]; 5 min postinjection): 0.3 | tumor-to-muscle ratio ([2]; 5 min postinjection): 2.7 | tumor-to-blood ratio ([2]; 60 min postinjection): 2.3 | tumor-to-muscle ratio ([2]; 60 min postinjection): 1 | SUV5min, tumor (MCF-7 tumors; MCF-7 tumor, 4-5 MBq i.v., 5 min postinjection, mean ± SEM, n = 6): 0.59±0.03 | SUV60min, tumor (MCF-7 tumors; MCF-7 tumor, 60 min postinjection, mean ± SEM, n = 6): 0.12±0.02
